Source: US9828330B2, “Non-peptide BDNF neurotrophin mimetics” (PHARMATROPHIX, INC., priority 2013, dated 2017)
“And” between values parts separate entries of the source, which are not always exact repeats. Identical values can stand only once. Like-named read-outs stand apart in the source and are kept apart here.

Tests used:
[1] = Brain-to-plasma ratio after intraperitoneal administration in male CD-1 mice (LC-MS/MS of plasma and brain homogenate); type: in vivo; conditions: for concentration at 1 h / concentration at 3 h / Kp at 1 h / Kp at 3 h: male, CD-1, mouse, ip; for Kp at 1 h / Kp at 3 h: brain/plasma
Method: (§1) In this study, the brain-to-plasma ratio of compounds of the invention was evaluated after intraperitoneal dosing in fasted male CD-1 mice. Test compounds were dosed at 50 mg/kg in sterile water for injection. Plasma and brain homogenate levels were determined at 1 and 3 hours post dose by LC-MS/MS. […] Penetration of the present compounds through the blood-brain barrier allows the compounds to exerts their receptor binding activity to achieve the therapeutic effects.
All data are expressed as ng/mL (equivalent to ng/g for calculation of brain:plasma ratio) of the free drug. Samples that were below the limit of quantitation were not used in the calculation of averages.
Brain-to-plasma ratios were determined by dividing the brain concentration in ng/g by the plasma concentration in ng/g.
Brain samples were homogenized with a Virsonic 100 ultrasonic homogenizer. Each brain sample was first weighed, and then an appropriate volume of 20:80 methanol:water was added to make a 4 mL/1 gram sample. Samples were then homogenized on ice, and stored frozen until analysis.
Standards samples were prepared in either CD-1 Mouse plasma containing K2EDTA as an anticoagulant or CD-1 mouse brain homogenate. Working solutions (200 μg/mL and/or 20 μg/mL for each test compound) was prepared in 50:50 ACN:water. Then, a nine-point calibration curve was prepared at concentrations of 2000, 1500, 1000, 500, 100, 50, 20, 10, and 5 ng/mL of each test compound by serial dilution; or for a high-sensitivity method, another nine point calibration curve was prepared at concentrations of 200, 150, 100, 50, 10, 5, 2, 1, and 0.5 ng/mL of each test compound by serial dilution. Standard samples were treated identically to the study samples.
Plasma and brain homogenate samples were extracted via acetonitrile precipitation on a Tomtec Quadra 96-Model 320 liquid handling system in a 96-well plate format.
HPLC Conditions • Instrument: Perkin Elmer series 200 micropumps and Autosampler • Column: Phenomenex Synergi Polar-RP, 4μ, 80A, 50×2.0 mm • Mobile Phase Buffer: 40 mM ammonium formate, pH 3.5 • Aqueous Reservoir (A): 10% buffer, 90% water • Organic Reservoir (B): 10% buffer, 90% acetonitrile • Gradient Program:
• Flow Rate: 400 μL/min • Injection Volume: […], • Run Time: 5.0 min • Column Temperature: ambient • Autosampler Wash Solution #1: ACN:IPA:H2O 40:30:30 (v/v/v) w/0.2% formic acid • Autosampler Wash Solution #2: MeOH:H2O 50:50 (v/v) Mass Spectrometer Conditions (for Calibration Curve from 5 to 2000 ng/mL) • Instrument: PE Sciex API 4000 • Interface: Electrospray (“Turbo Ion Spray”) • Mode: Multiple Reaction Monitoring (MRM) • Gases: CUR 20, GS1 20, GS2 10, CAD Medium, IS 5200 • Source Temperature: 500° C., ihe OFF • Voltages and Ions Monitored*:
Mass Spectrometer Conditions (for Calibration Curve from 0.5 to 200 ng/mL, High Sensitivity Method) • Instrument: PE Sciex API 4000 Q TRAP • Interface: Electrospray (“Turbo Ion Spray”) • Mode: Multiple Reaction Monitoring (MRM) • Gases: CUR 20, GS1 20, GS2 10, CAD Medium, IS 5200 • Source Temperature: 500° C., ihe OFF • Voltages and Ions Monitored*: […]

[2] = Observations and adverse reactions after intraperitoneal administration in CD-1 mice; type: in vivo; conditions: IP 50 mg/kg
Method: as §1

[3] = 1.0 hr after IP dosing at 50 mg/kg, individual fasted male CD-1 mice, 50 mg/kg
[4] = 1.0 hr after IP dosing at 50 mg/kg, individual mice, 50 mg/kg
[5] = 1.0 hr after IP dosing at 50 mg/kg, mean of mice, 50 mg/kg
[6] = 3.0 hr after IP dosing at 50 mg/kg, individual fasted male CD-1 mice, BLQ = below 0.5 ng/mL, 50 mg/kg
[7] = 3.0 hr after IP dosing at 50 mg/kg, individual mice, 50 mg/kg
[8] = 50 mg/kg, 1.0 hr after IP dosing at 50 mg/kg, mean of mice, read-out: Average B:P Ratio
[9] = 50 mg/kg, 3.0 hr after IP dosing at 50 mg/kg, individual mice, read-out: B:P Ratio
[10] = 50 mg/kg, 3.0 hr after IP dosing at 50 mg/kg, mean of mice (Compound-3: one animal only), read-out: Average B:P Ratio
[11] = plasma, 50 mg/kg, 1.0 hr after IP dosing at 50 mg/kg, individual mice, read-out: Plasma Conc

Structure (SMILES)	Brain Tissue Homogen. Conc [1, 3]	B:P Ratio [1, 4]	Brain Tissue Conc [1, 4]	Plasma Conc [1, 4]	Average B:P Ratio [1, 5]	Brain Tissue Homogen. Conc [1, 6]	Plasma Conc [1, 7]	Kp at 1 h [1, 8]	Kp at 3 h [1, 9]	Kp at 3 h [1, 10]	concentration at 1 h [1, 11] [ng/mL]	Adverse effects after intraperitoneal administration [2]	further results
CC(c1ccc(N(CCO)CCO)cc1)c1ccc(N(CCO)CCO)cc1 [Compound-3, 2,2′,2″,2′″-((ethane-1,1-diylbis(4,1-phenylene))bis(azanetriyl))-tetraethanol]	2.87 µg/mL and 2.24 µg/mL	0.27 and 0.36	14.4 µg/mL and 11.2 µg/mL	52.6 ng/mL and 30.9 ng/mL	0.328	BLQ	2.02 ng/mL and 1.67 ng/mL	0.328 ± 0.048	1.14	1.14	31.8	No adverse effects were observed	Average B:P Ratio ([1]; 3.0 hr after IP dosing at 50 mg/kg, mean of mice (Compound-3: one animal only)): 1.14; concentration at 1 h ([1]; brain homogenate, 50 mg/kg, 1.0 hr after IP dosing at 50 mg/kg, individual fasted male CD-1 mice, read-out: Brain Tissue Homogen. Conc): 2210 ng/mL; concentration at 3 h ([1]; brain homogenate, 50 mg/kg, 3.0 hr after IP dosing at 50 mg/kg, individual fasted male CD-1 mice, BLQ = below 0.5 ng/mL, read-out: Brain Tissue Homogen. Conc): 611 ng/mL; concentration at 1 h ([1]; brain, 50 mg/kg, 1.0 hr after IP dosing at 50 mg/kg, individual mice, read-out: Brain Tissue Conc): 11100 ng/mL; concentration at 3 h ([1]; brain, 50 mg/kg, 3.0 hr after IP dosing at 50 mg/kg, individual mice, read-out: Brain Tissue Conc): 3060 ng/mL; Kp at 1 h ([1]; 50 mg/kg, 1.0 hr after IP dosing at 50 mg/kg, individual mice, read-out: B:P Ratio): 0.35; concentration at 3 h ([1]; plasma, 50 mg/kg, 3.0 hr after IP dosing at 50 mg/kg, individual mice, read-out: Plasma Conc): 2.67 ng/mL
COCCN(CCOC)c1ccc(C(C)c2ccc(N(CCOC)CCOC)cc2)cc1 [Compound-2, 4,4′-(ethane-1,1-diyl)bis(N,N-bis(2-methoxyethyl)aniline)]	41.6 µg/mL and 122 µg/mL and 25.2 µg/mL	0.58 and 0.99 and 0.34	208 µg/mL and 610 µg/mL and 126 µg/mL	614 ng/mL and 369 ng/mL	0.638	26.3 µg/mL and 12.2 µg/mL and 6.22 µg/mL	202 ng/mL and 108 ng/mL and 63.1 ng/mL	0.638 ± 0.33	0.65	0.57 ± 0.079	359	No adverse effects were observed	B:P Ratio [1, 7]: 0.56 and 0.49; Brain Tissue Conc [1, 7]: 132 µg/mL and 61.0 µg/mL and 31.1 µg/mL; Average B:P Ratio ([1]; 3.0 hr after IP dosing at 50 mg/kg, mean of mice (Compound-3: one animal only), 50 mg/kg): 0.570
